Experimental data: patent US20240059691A1 (KALVISTA PHARMACEUTICALS LIMITED, priority 2020, published 2024)

Target: Human Factor XIIa (Homo sapiens (Human), UniProt P00748)
Experiment: Determination of FXIIa inhibition (fluorogenic substrate H-DPro-Phe-Arg-AFC, IC50 assay)
Assay type: biochemical
Conditions: substrate H-DPro-Phe-Arg-AFC at Km, 25° C.; class scale A-G
Method: Determination of FXIIa Inhibition
In vitro inhibition of Factor XIIa was determined using an IC50 assay based on standard literature methods (see e.g Baeriswyl et al., ACS Chem. Biol., 2015, 10 (8) 1861; Bouckaert et al., European Journal of Medicinal Chemistry 110 (2016) 181). Human Factor XIIa (Enzyme Research Laboratories) was incubated at 25° C. with the fluorogenic substrate H-DPro-Phe-Arg-AFC (Peptide Protein Science) and various concentrations of the test compound. Protease activity was measured by monitoring the accumulation of liberated fluorescence from the substrate over 5 min at 25° C. The linear rate of fluorescence increase per minute was expressed as percentage (%) activity. The Km for the cleavage of the substrate by FXIIa was determined by standard transformation of the Michaelis-Menten equation. The compound inhibitor assays were performed at substrate Km concentration. IC50 values were calculated as the concentration of inhibitor giving 50% inhibition (IC50) of the uninhibited enzyme activity (100%).

Chain of Human Factor XIIa (P00748 373-615): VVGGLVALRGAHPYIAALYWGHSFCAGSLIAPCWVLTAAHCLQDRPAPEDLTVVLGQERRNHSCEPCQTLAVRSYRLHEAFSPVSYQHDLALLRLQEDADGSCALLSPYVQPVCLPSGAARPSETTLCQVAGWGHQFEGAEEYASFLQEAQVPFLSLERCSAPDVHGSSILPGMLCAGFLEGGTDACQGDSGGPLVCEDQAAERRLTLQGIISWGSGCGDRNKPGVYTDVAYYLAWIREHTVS

Nc1ncc(Cl)c2cc(NCc3ccc(OCC4CCn5ccnc5C4)nc3)ccc12 (stereo not drawn) [Example 1041, 4-Chloro-N6-[[6-(5,6,7,8-tetrahydroimidazo[1,2-a]pyridin-7-ylmethoxy)-3-pyridyl]methyl]isoquinoline-1,6-diamine] and CN1CCC(COc2ccc(CNc3ccc4c(N)nccc4c3)cn2)CC1=O (stereo not drawn) [Example 1015, 4-{[(5-{[(1-aminoisoquinolin-6-yl)amino]methyl}pyridin-2-yl)oxy]methyl}-1-methylpiperidin-2-one] fall in the same range of IC50: 0.3 to 1 µM for the first, 0.3 to 1 µM for the second.

CN1CCC(COc2ccc(CNc3cccc4c(N)ncnc34)cn2)CC1 [Example 1022, N8-[[6-[(1-methyl-4-piperidyl)methoxy]-3-pyridyl]methyl]quinazoline-4,8-diamine] and CN1CCC(COc2cc(CNc3ccc4c(N)ncnc4c3)ccn2)CC1 [Example 4263, 7-N-({2-[(1-methylpiperidin-4-yl)methoxy]pyridin-4-yl}methyl)quinazoline-4,7-diamine] fall in the same range of IC50: 10 to 40 µM for the first, 10 to 40 µM for the second.

CCc1cc2c(NCc3ccc(NCC4CCN(C)CC4)nc3)ccnc2[nH]1 [Example 1239, 2-ethyl-N-((6-(((1-methylpiperidin-4-yl)methyl)amino)pyridin-3-yl)methyl)-1H-pyrrolo[2,3-b]pyridin-4-amine] and CN1CCC(COc2ccc(CNc3ccc4cncc(CO)c4c3)cn2)CC1 [Example 1026, (6-(((6-((1-Methylpiperidin-4-yl)methoxy)pyridin-3-yl)methyl)amino)isoquinolin-4-yl)methanol] fall in the same range of IC50: 10 to 40 µM for the first, 10 to 40 µM for the second.

CN1CCC(OCc2ccc(S(=O)(=O)Nc3ccc4c(N)nccc4c3)cc2)CC1 [Example 2210, N-(1-aminoisoquinolin-6-yl)-4-(((1-methylpiperidin-4-yl)oxy)methyl)benzenesulfonamide] and CN1CCC(CCc2cccc(CNc3ccc4c(N)nccc4c3)c2)CC1 [Example 4410, 6-N-({3-[2-(1-methylpiperidin-4-yl)ethyl]phenyl}methyl)isoquinoline-1,6-diamine] fall in the same range of IC50: 0.3 to 1 µM for the first, 0.3 to 1 µM for the second.

Nc1nccc2c(NS(=O)(=O)c3ccc(N4CCn5c(nnc5C(F)(F)F)C4)nc3)cccc12 [Example 1337, N-(1-aminoisoquinolin-5-yl)-6-(3-(trifluoromethyl)-5,6-dihydro-[1,2,4]triazolo[4,3-a]pyrazin-7(8H)-yl)pyridine-3-sulfonamide] and CCc1nc(N2CCn3c(nnc3C(F)(F)F)C2)ccc1CNc1cccc2c(N)nccc12 [Example 1336, N5-((2-ethyl-6-(3-(trifluoromethyl)-5,6-dihydro-[1,2,4]triazolo[4,3-a]pyrazin-7(8H)-yl)pyridin-3-yl)methyl)isoquinoline-1,5-diamine] fall in the same range of IC50: 0.3 to 1 µM for the first, 0.3 to 1 µM for the second.

CN1CCC(COc2cc(CNc3ccc4c(N)nccc4c3)ccn2)CC1=O (stereo not drawn) [Example 4416, 4-{[(4-{[(1-aminoisoquinolin-6-yl)amino]methyl}pyridin-2-yl)oxy]methyl}-1-methylpiperidin-2-one] and CN1CCC(COc2cc(CNc3cccc4c(N)nccc34)ccn2)CC1=O (stereo not drawn) [Example 4417, 4-{[(4-{[(1-aminoisoquinolin-5-yl)amino]methyl}pyridin-2-yl)oxy]methyl}-1-methylpiperidin-2-one] fall in the same range of IC50: 0.3 to 1 µM for the first, 0.3 to 1 µM for the second.

First: Cc1cc2c(NCc3cnc(N4CCn5c(nnc5C(F)(F)F)C4)cc3C)cncc2[nH]1 [Example 1341, 2-methyl-N-((4-methyl-6-(3-(trifluoromethyl)-5,6-dihydro-[1,2,4]triazolo[4,3-a]pyrazin-7(8H)-yl)pyridin-3-yl)methyl)-1H-pyrrolo[2,3-c]pyridin-4-amine]
Second: Cc1cc(N2CCn3c(nnc3C(F)(F)F)C2)ncc1CNc1ccnc2c1CCN2 [Example 1339, N-((4-methyl-6-(3-(trifluoromethyl)-5,6-dihydro-[1,2,4]triazolo[4,3-a]pyrazin-7(8H)-yl)pyridin-3-yl)methyl)-2,3-dihydro-1H-pyrrolo[2,3-b]pyridin-4-amine]
The IC50 of the first is lower: 1 to 3 µM for the first, 10 to 40 µM for the second. The first is the more potent here.

First: CCC1c2nnc(C(F)(F)F)n2CCN1c1cc(C)c(CNc2cccc3c(N)nccc23)cn1 (single isomer, unassigned) [Example 1320, (R*)-N5-((6-(8-ethyl-3-(trifluoromethyl)-5,6-dihydro-[1,2,4]triazolo[4,3-a]pyrazin-7(8H)-yl)-4-methylpyridin-3-yl)methyl)isoquinoline-1,5-diamine]
Second: COCC1c2nnc(C(F)(F)F)n2CCN1c1cc(C)c(CNc2cccc3c(N)nccc23)cn1 (single isomer, unassigned) [Example 1344, (R*)-N5-((6-(8-(methoxymethyl)-3-(trifluoromethyl)-5,6-dihydro-[1,2,4]triazolo[4,3-a]pyrazin-7(8H)-yl)-4-methylpyridin-3-yl)methyl)isoquinoline-1,5-diamine]
The IC50 of the first is higher: 10 to 40 µM for the first, 0.01 to 0.1 µM for the second. The second is the more potent here.

First: CN1CCC(C)(COc2cc(CNc3cccc4c(N)nccc34)ccn2)CC1 [Example 4424, N5-((2-((1,4-dimethylpiperidin-4-yl)methoxy)pyridin-4-yl)methyl)isoquinoline-1,5-diamine]
Second: CN1C[C@@H]2C(COc3cc(CNc4cccc5c(N)nccc45)ccn3)[C@@H]2C1 (stereo partly drawn) [Example 4418, 5-N-[(2-{[(1R,5S)-3-methyl-3-azabicyclo[3.1.0]hexan-6-yl]methoxy}pyridin-4-yl)methyl]isoquinoline-1,5-diamine]
The IC50 of the first is lower: 0.1 to 0.3 µM for the first, 0.3 to 1 µM for the second.

Compared with Nc1nccc2cc(NCc3cccc(CN4CCCC4)c3)ccc12 [Example 4287, 6-N-{[3-(pyrrolidin-1-ylmethyl)phenyl]methyl}isoquinoline-1,6-diamine], CC(C)(O)CN1CCC(COc2ccc(CNc3ccc4c(N)nccc4c3)cn2)CC1 [Example 1017, 1-(4-(((5-(((1-aminoisoquinolin-6-yl)amino)methyl)pyridin-2-yl)oxy)methyl)piperidin-1-yl)-2-methylpropan-2-ol] is lower in IC50: 10 to 40 µM for the first, 0.3 to 1 µM for the second. The second is the more potent here.

First: CCC1c2nnc(C(F)(F)F)n2CCN1c1cc(C)c(CNc2cccc3c(N)nccc23)cn1 (stereo not drawn) [Example 1331, N5-((6-(8-ethyl-3-(trifluoromethyl)-5,6-dihydro-[1,2,4]triazolo[4,3-a]pyrazin-7(8H)-yl)-4-methylpyridin-3-yl)methyl)isoquinoline-1,5-diamine]
Second: Cc1cc(N2CCn3c(nnc3C(F)(F)F)C2C)cnc1CNc1cccc2c(N)nccc12 (single isomer, unassigned) [Example 1345, (R*)-N5-((3-methyl-5-(8-methyl-3-(trifluoromethyl)-5,6-dihydro-[1,2,4]triazolo[4,3-a]pyrazin-7(8H)-yl)pyridin-2-yl)methyl)isoquinoline-1,5-diamine]
The IC50 of the first is higher: 0.1 to 0.3 µM for the first, 0.01 to 0.1 µM for the second.

Compared with Cc1cc(N2CCn3c(nnc3C(F)(F)F)C2)ccc1CNc1cccc2c(N)nccc12 [Example 2257, N5-(2-methyl-4-(3-(trifluoromethyl)-5,6-dihydro-[1,2,4]triazolo[4,3-a]pyrazin-7(8H)-yl)benzyl)isoquinoline-1,5-diamine], Cc1cc(N2CCn3c(nnc3C(F)(F)F)C2C)ncc1CNc1ccnc2[nH]c(Cl)cc12 (single isomer, unassigned) [Example 1316, (S*)-2-Chloro-N-((4-methyl-6-(8-methyl-3-(trifluoromethyl)-5,6-dihydro-[1,2,4]triazolo[4,3-a]pyrazin-7(8H)-yl)pyridin-3-yl)methyl)-1H-pyrrolo[2,3-b]pyridin-4-amine] is lower in IC50: 0.1 to 0.3 µM for the first, 0.01 to 0.1 µM for the second.
